{"source": "paper PMC5403252", "about": "(Pharmacology, biochemistry, and behavior, 2016)", "key": {"5-HT uptake": {"test_system": "5-HT uptake", "settings": "ref Berge et al. 1983; Chang et al. 1993; Nagai et al. 2007; cited from earlier work"}, "[1]": {"assay": "5-MeO-DMT and bufotenine levels in plasma by LC-ESI-SRM-MS/MS", "type": "in vivo, rat", "settings": "for AUC / Cmax: rat, plasma, sc, 1 mg/kg, 1 mg/kg SC; for AUC: plasma AUC20→70 min for 5-MeO-DMT, trapezoidal rule; for Cmax: plasma Cmax of 5-MeO-DMT"}, "[2]": {"settings": "10 mg/kg IP; ref Sitaram et al. 1987; cited from earlier work"}, "[3]": {"assay": "5-MeO-DMT and bufotenine levels in whole brain by LC-ESI-SRM-MS/MS", "type": "in vivo, rat", "settings": "for Cmax: rat, whole brain, sc, 1 mg/kg, Cmax of 5-MeO-DMT in whole brain"}, "Sprague–Dawley rats [4]": {"test_system": "Sprague–Dawley rats", "assay": "Acoustic startle: startle magnitude", "type": "in vivo, rat"}, "Sprague–Dawley rats [5]": {"test_system": "Sprague–Dawley rats", "assay": "Prepulse inhibition", "type": "in vivo, rat"}, "Sprague–Dawley rats [6]": {"test_system": "Sprague–Dawley rats", "assay": "Behavioral Pattern Monitor locomotor activity", "type": "in vivo, rat", "settings": "5-MeO-DMT 1 mg/kg SC, clorgyline 0.3 mg/kg pretreatment; fifth 10-min time block, p<0.05"}, "5-HT2A [7]": {"test_system": "5-HT2A", "settings": "rats; ref Bedard and Pycock 1977; Matthews and Smith 1980; cited from earlier work"}, "5-HT2A [8]": {"test_system": "5-HT2A", "settings": "cited from earlier work"}, "[9]": {"settings": "after SC administration of 1 mg/kg"}, "[10]": {"settings": "clorgyline 0.3 mg/kg pretreatment"}}, "note": "Counter-ions that a name gives are not always drawn. Like-named read-outs stand apart in the source and are kept apart here."}
{"smiles": "COc1ccc2[nH]cc(CCN(C)C)c2c1", "note": "[5-MeO-DMT, 5-Methoxy-N,N-dimethyltryptamine]", "values": [{"measurement": "concentrations inhibiting 5-HT uptake", "setting": "5-HT uptake", "value": "low micromolar concentrations"}, {"measurement": "time at which level of 5-MeO-DMT in plasma peaked", "setting": "[1]; [9]", "value": "≤ 20", "unit": "min"}, {"measurement": "AUC", "setting": "[1]; [10]", "value": "0.0314 ± 0.0023", "unit": "µg·h/mL"}, {"measurement": "AUC", "setting": "[1]; vehicle pretreatment", "value": "0.0122 ± 0.0017", "unit": "µg·h/mL"}, {"measurement": "Cmax", "setting": "[1]; [10]", "value": "0.0781 ± 0.0095", "unit": "µg/mL"}, {"measurement": "Cmax", "setting": "[1]; vehicle pretreatment", "value": "0.0527 ± 0.0118", "unit": "µg/mL"}, {"measurement": "increase of 5-MeO-DMT blood levels by iproniazid", "setting": "[2]", "value": 40, "unit": "fold"}, {"measurement": "increase of 5-MeO-DMT brain levels by iproniazid", "setting": "[2]", "value": "~100", "unit": "fold"}, {"measurement": "peak level of 5-MeO-DMT in the brain", "setting": "[3]; 1 mg/kg SC, no MAO inhibitor", "value": 144.3, "unit": "nM"}, {"measurement": "time at which level of 5-MeO-DMT in brain peaked", "setting": "[3]; [9]", "value": "≤ 20", "unit": "min"}, {"measurement": "Cmax", "setting": "[3]; 1 mg/kg SC, clorgyline 0.3 mg/kg pretreatment", "value": "634 ± 146", "unit": "ng/g"}, {"measurement": "Cmax", "setting": "[3]; 1 mg/kg SC, vehicle pretreatment", "value": "30.3 ± 11.2", "unit": "ng/g"}, {"measurement": "Startle magnitude (mean±SEM)", "setting": "Sprague–Dawley rats [4]; clorgyline 0.3 mg/kg pretreatment, 5-MeO-DMT 1.0 mg/kg SC, 45 min, experiment 2, n=12", "value": "544.45±62.88"}, {"measurement": "Startle magnitude (mean±SEM)", "setting": "Sprague–Dawley rats [4]; vehicle pretreatment, 5-MeO-DMT 0.1 mg/kg SC, tested 45 min post-injection, experiment 1, n=10", "value": "180.58±37.92"}, {"measurement": "Startle magnitude (mean±SEM)", "setting": "Sprague–Dawley rats [4]; vehicle pretreatment, 5-MeO-DMT 1.0 mg/kg SC, 45 min, experiment 1, n=10", "value": "274.12±56.96"}, {"measurement": "Effect on PPI", "setting": "Sprague–Dawley rats [5]; 5-MeO-DMT 1.0 mg/kg SC in animals pretreated with clorgyline 0.3 mg/kg, 45 min, all three prepulse intensities, p<0.01", "value": "significantly reduced PPI"}, {"measurement": "Effect on PPI", "setting": "Sprague–Dawley rats [5]; 5-MeO-DMT 1 mg/kg SC in animals pretreated with pargyline 10 mg/kg, 45 min, all three prepulse intensities, p<0.01", "value": "significantly reduced PPI"}, {"measurement": "Effect on PPI", "setting": "Sprague–Dawley rats [5]; 5-MeO-DMT 1.0 mg/kg SC, saline-pretreated animals, 45 min, experiment 2", "value": "did not alter PPI"}, {"measurement": "Effect on PPI", "setting": "Sprague–Dawley rats [5]; 5-MeO-DMT 0.1 or 1.0 mg/kg SC, saline-pretreated animals, tested 45 min post-injection, experiment 1", "value": "did not alter PPI"}, {"measurement": "Crossings (locomotor activity) versus vehicle pretreatment", "setting": "Sprague–Dawley rats [6]", "value": "significantly more crossings"}, {"measurement": "doses eliciting the head twitch response (HTR)", "setting": "5-HT2A [7]", "value": "0.2 to 1", "unit": "mg/kg"}, {"measurement": "concentration of 5-MeO-DMT required to activate 5-HT2A", "setting": "5-HT2A [8]; ref Blair et al. 2000, Parrish and Nichols 2006", "value": "low micromolar range"}, {"measurement": "concentration of 5-MeO-DMT required to activate 5-HT2A", "setting": "5-HT2A [8]; ref Newton et al. 1996, Rabin et al. 2002, Kurrasch-Orbaugh et al. 2003, Strachan et al. 2010", "value": "several hundred nanomolar"}]}
{"smiles": "C#CCN(C)CCCOc1ccc(Cl)cc1Cl.Cl", "note": "[Clorgyline, N-methyl-N-propargyl-3-(2,4-dichlorophenoxy)-propylamine HCl]", "values": [{"measurement": "Startle magnitude (mean±SEM)", "setting": "Sprague–Dawley rats [4]; clorgyline 0.3 mg/kg SC pretreatment, vehicle treatment, experiment 2, n=12", "value": "422.31±78.47"}]}
{"smiles": "COc1ccccc1N1CCN(CCN(C(=O)C2CCCCC2)c2ccccn2)CC1.O=C(O)/C=C\\C(=O)O", "note": "[WAY-100635, N-[2-[4-(2-methoxyphenyl)-1-piperazinyl]ethyl]-N-2-pyridinylcyclohexanecarboxamide maleate]", "values": [{"measurement": "Startle magnitude (mean±SEM)", "setting": "Sprague–Dawley rats [4]; WAY-100635 1.0 mg/kg SC pretreatment, vehicle treatment, experiment 3, n=10", "value": "271.30±51.26"}, {"measurement": "Startle magnitude (mean±SEM)", "setting": "Sprague–Dawley rats [4]; WAY-100635 1.0 mg/kg pretreatment, pargyline 10 + 5-MeO-DMT 1.0 mg/kg, experiment 3, n=10", "value": "172.03±47.00"}, {"measurement": "Effect of pretreatment on reduction of PPI produced by 10 mg/kg pargyline and 1 mg/kg 5-MeO-DMT", "setting": "Sprague–Dawley rats [5]; WAY-100,635 1 mg/kg pretreatment, p<0.01, Tukey's test", "value": "significantly antagonized"}]}
{"smiles": "OC(c1ccccc1)C1CCN(CCc2ccccc2)CC1", "note": "(stereo not drawn) [MDL 11,939, α-Phenyl-1-(2-phenylethyl)-4-piperidinemethanol]", "values": [{"measurement": "Startle magnitude (mean±SEM)", "setting": "Sprague–Dawley rats [4]; MDL 11,939 0.3 mg/kg pretreatment, pargyline 10 + 5-MeO-DMT 1.0 mg/kg, experiment 3, n=10", "value": "419.79±48.30"}, {"measurement": "Effect of pretreatment on ability of pargyline and 5-MeO-DMT to reduce PPI", "setting": "Sprague–Dawley rats [5]; MDL 11,939 0.3 mg/kg pretreatment, p<0.01, Tukey's test", "value": "significantly attenuated"}]}
{"smiles": "C#CCN(C)Cc1ccccc1", "note": "[Pargyline, pargyline HCl]", "values": [{"measurement": "Startle magnitude (mean±SEM)", "setting": "Sprague–Dawley rats [4]; pargyline 10 mg/kg SC pretreatment, vehicle treatment, experiment 1, n=10", "value": "167.66±22.30"}, {"measurement": "Effect on PPI", "setting": "Sprague–Dawley rats [5]; pargyline 10 mg/kg alone compared with vehicle pretreatment", "value": "did not significantly reduce PPI"}]}
